Key:
[1] = Solubility of extractant in dense carbon dioxide; assay type: physicochemical; conditions: 70° C. and 120 bar
[2] = cited from earlier work; for solubility relative to β-carotene: qualitative comparison

O=CN1CCOCC1 [4-formylmorpholine]
solubility in carbon dioxide [1]: 9 wt. %

CC1=CCCC(C)(C)C1/C=C/C(C)=C/C=C/C(C)=C/C=C/C=C(C)/C=C/C=C(C)/C=C/C1=C(C)CCCC1(C)C (stereo not drawn) [α-Carotene]
solubility relative to β-carotene [2]: more readily soluble than β-carotene

CC1=C(/C=C/C(C)=C/C=C/C(C)=C/C=C/C=C(C)/C=C/C=C(C)/C=C/C2=C(C)CCCC2(C)C)C(C)(C)CCC1 [β-Carotene]
solubility in benzene ([2]; benzene, 19° C.): 0.35 grams per 100 cm^3 of solvent
solubility in carbon disulfide ([2]; carbon disulfide, 19° C.): 5.5 grams per 100 cm^3 of solvent
solubility in ethanol ([2]; ethanol, 19° C.): 0.008 grams per 100 cm^3 of solvent
solubility in petroleum ether ([2]; petroleum ether, 19° C.): 0.1 grams per 100 cm^3 of solvent

CC(C)=CCC/C(C)=C/C=C/C(C)=C/C=C/C(C)=C/C=C/C=C(C)/C=C/C=C(C)/C=C/C1=C(C)CCCC1(C)C [γ-Carotene]
solubility relative to β-carotene [2]: more readily soluble than β-carotene

Reference: patent US6407306B1, “Process for extracting carotenes from carotene-containing materials” (priority 2000, dated 2002)
